The text below walks through data of patent publication US7998985B2, “1,5-diphenyl-3-pyridinylamino-1,5-dihydropyrrolidin-2-one as CB1 receptor modulator” (Eli Lilly and Company, priority 2006, dated 2011).

The test system of data set [1] is alcohol-preferring (P) rats. The data set can be described thus: 12-hour ethanol consumption in alcohol-preferring rats (P rats). The conditions noted are these: female P rats, 15% (v/v) ethanol, continuous free access; Example 2 given p.o. It is filed as in vivo, rat. The text has this:
Evaluate Example 2 for its ability to reduce consumption of ethanol in rats selectively bred for high oral ethanol intake (P rats). In addition, study the effects of Example 2 under conditions in which effects of the compound on motivation or the control of behavior by ethanol could be assessed.
Methods: Study the effects of Example 2 on female, alcohol-preferring (P) rats on alcohol consumption under a continuous free access paradigm. For comparative purposes test the standard opioid antagonist naltrexone. Monitor voluntary consumption of 15% (v/v) ethanol. Suspend Example 2 in vehicle (1% CMC, 0.5% SLS, 0.08% povidone, 0.05% Dow Corning antifoam 1510 US) and give p.o. 3 hours prior to the onset of the dark cycle. In addition, measure locomotor activity via infrared sensor.

For data set [2], the target named is T1, human CB2 receptor (Homo sapiens, UniProt P34972).
T1 construct: purchased Applied Cell Sciences, Gaithersburg, Md; PerkinElmer Life Sciences, Boston, Mass; host or cells: Sf9 insect cells (recombinant expression), membranes
T1 sequence (P34972 whole entry): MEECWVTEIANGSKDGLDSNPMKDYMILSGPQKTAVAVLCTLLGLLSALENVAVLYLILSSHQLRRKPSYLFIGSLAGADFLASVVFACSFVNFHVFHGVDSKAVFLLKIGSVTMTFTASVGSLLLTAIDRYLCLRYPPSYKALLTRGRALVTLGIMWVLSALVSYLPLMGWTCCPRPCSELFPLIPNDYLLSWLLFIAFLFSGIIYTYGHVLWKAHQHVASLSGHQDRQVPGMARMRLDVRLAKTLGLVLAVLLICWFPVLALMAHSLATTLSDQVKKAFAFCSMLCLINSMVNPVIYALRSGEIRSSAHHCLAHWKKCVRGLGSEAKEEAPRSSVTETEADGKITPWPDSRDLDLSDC
The data set can be described thus: Antibody-capture SPA GTP-γ-35S binding, antagonist/inverse agonist mode, human CB2 (Sf9 membranes). In kind it is biochemical. To be noted: Table 3.

The nature of data set [3]: Bioavailability, rat. To be noted: in vivo. The text has this:
(§1) Methods for accessing bioavailability are well appreciated in the art. One such reference is Medicinal Research Reviews Vol. 21 No. 5 382-396 (2001).

Data set [4] in a line: Bioavailability, dog. To be noted: in vivo.
Text: as §1

Data set [5] has as its system NIH male Swiss mice. The data set can be described thus: Forced Swim Test (FST). It is filed as in vivo, mouse. The conditions noted are these: 90 minute pre-treatment, lowest dose with significant decrease in immobility time. The method, then: Receive NIH male Swiss mice (Harlan Sprague-Dawley, weight 20-25 g) 7 to 10 days prior to testing. House 12 mice per cage. Test only animals that weigh 25-30 g. On the day of testing, bring animals to the testing room at least 1 hour prior to dosing. When dosing starts, dose at 6-8 minute intervals between each dose with each mouse receiving either Administer vehicle (1% CMC, 0.5% SLS, 0.08% povidone, 0.05% antifoam) or Example 2, p.o. Next, place mice in a clean cage (4 mice per cage). After 90 minutes, start the test following a 90 minute pre-treatment with Example 2 or vehicle.
Mice FST: Place NIH-Swiss mice in clear plastic cylinders (diameter: 10 cm; height: 25 cm) filled to 6 cm with 22-25° C. water for six minutes. Record the duration of immobility during the last 4 minutes of the six-minute trial. A mouse is regarded as immobile when floating motionless or making only those movements necessary to keep its head above the water. Analyze data by ANOVA with a post-hoc Dunnett's test (alpha=0.05; JMP). Record the minimum effective dose (MED) as the lowest dose of compound at which statistically significant decrease in immobility time is observed versus a vehicle control.

Data set [6] concerns the target hCB1 (Homo sapiens, UniProt P21554). The data set can be described thus: hCB1 SPA GTPγ35S Sf9 membranes, antagonist mode (Table 3). To be noted: hCB1 SPA GTPγ35S Sf9 Mem 22.7 ug protein/well Antagonist; read-out: Inverse Agonist Potency CB1 (Kb). In kind it is biochemical. Also on record: purchased Applied Cell Sciences, Gaithersburg, Md; PerkinElmer Life Sciences, Boston, Mass; host or cells: Sf9 insect cells (recombinant expression), membranes.

Sequence of hCB1 (P21554 whole entry): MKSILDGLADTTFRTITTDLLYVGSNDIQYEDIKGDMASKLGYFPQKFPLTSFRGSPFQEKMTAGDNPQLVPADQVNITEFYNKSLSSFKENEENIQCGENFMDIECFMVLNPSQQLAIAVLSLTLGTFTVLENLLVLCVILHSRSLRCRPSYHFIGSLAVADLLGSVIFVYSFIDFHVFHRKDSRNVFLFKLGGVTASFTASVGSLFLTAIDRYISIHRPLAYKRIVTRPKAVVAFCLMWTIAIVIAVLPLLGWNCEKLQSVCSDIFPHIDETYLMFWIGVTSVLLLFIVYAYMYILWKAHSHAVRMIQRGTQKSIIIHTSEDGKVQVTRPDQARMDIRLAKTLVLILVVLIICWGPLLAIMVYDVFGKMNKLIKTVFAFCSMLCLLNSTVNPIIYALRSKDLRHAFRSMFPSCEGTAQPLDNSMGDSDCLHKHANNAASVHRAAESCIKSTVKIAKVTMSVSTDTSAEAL

For `O=C1CC[C@@]2(O)[C@H]3Cc4ccc(O)c5c4[C@@]2(CCN3CC2CC2)[C@H]1O5` [Naltrexone, naltrexone, reference compound], in data set [1], the consumption of ethanol result was “at higher doses, was also able to reduce ethanol intake”.
Consider `CC(C)(N[C@@H]1C[C@H](c2cccc(OC(F)(F)F)c2)N(c2ccc(C(F)(F)F)cc2)C1=O)c1ccc(C(F)(F)F)nc1.Cc1ccc(S(=O)(=O)O)cc1` [drawing 21], for which the “Inverse Agonist Potency CB2 (Kb, nM)” value in data set [2] is on record as “No measurable activity”. Moreover, the bioavailability in data set [3] came out at 65%; in data set [4] it was 60%. For the same molecule, the “FST (MED mg/kg p.o.)” value in data set [5] amounted to 1 mg/kg.
Consider `CC(C)(N[C@@H]1C[C@H](c2cccc(OC(F)(F)F)c2)N(c2ccc(C(F)(F)F)cc2)C1=O)c1ccc(C(F)(F)F)nc1.Cl` [drawing 22], for which the “Inverse Agonist Potency CB2 (Kb, nM)” value in data set [2] was “No measurable activity”.
Take `CC(C)(N[C@H]1C[C@H](c2cccc(OC(F)(F)F)c2)N(c2ccc(C(F)(F)F)cc2)C1=O)c1ccc(C(F)(F)F)nc1.Cc1ccc(S(=O)(=O)O)cc1` [drawing 23]: in data set [2], the “Inverse Agonist Potency CB2 (Kb, nM)” value is “No measurable activity”. Further, the Kb in data set [6] was 3 nM.
The matching figures for `CC(C)(N[C@H]1C[C@H](c2cccc(OC(F)(F)F)c2)N(c2ccc(C(F)(F)F)cc2)C1=O)c1ccc(C(F)(F)F)nc1.Cl` [drawing 24]: “No measurable activity” and 8.8 nM.
